Measured values: US20230183193A1, “4-DIFLUOROMETHYL BENZOYL AMIDES WITH HERBICIDAL ACTION” (BAYER CROPSCIENCE AKTIENGESELLSCHAFT, priority 2017, published 2023)

Key:
Type in all cases: in vivo
Abutilon theophrasti [1] = test: Pre-emergence herbicidal action, ABUTH; settings: dosage 320 g/ha, scored visually after 3 weeks vs untreated controls
Source text: (§1) 1. Pre-Emergence Herbicidal Action Against Harmful Plants Seeds of monocotyledonous and dicotyledonous weed plants and crop plants are laid out in sandy loam soil in wood-fiber pots and covered with soil. The compounds of the invention, formulated in the form of wettable powders (WP) or as emulsion concentrates (EC), are then applied to the surface of the covering soil in the form of an aqueous suspension or emulsion at a water application rate equating to […], with addition of 0.2% wetting agent. After the treatment, the pots are placed in a greenhouse and kept under good growth conditions for the trial plants. The damage to the test plants is scored visually after a test period of 3 weeks by comparison with untreated controls (herbicidal activity in percent (%): 100% activity=the plants have died, 0% activity=like control plants).
(§2) For comparison, the herbicidal activity of numerous compounds according to the invention was tested with the structurally closest compounds known from the documents WO 2011/035874, WO 2012/028579 and WO 2012/126932, by the pre- and post-emergence method.

Viola tricolor [2] = test: Post-emergence herbicidal action, VIOTR; settings: 80 g/ha, Table D
Protocol: (§3) Seeds of monocotyledonous and dicotyledonous weed and crop plants are laid out in sandy loam soil in wood-fiber pots, covered with soil and cultivated in a greenhouse under good growth conditions. 2 to 3 weeks after sowing, the test plants are treated at the one-leaf stage. The compounds of the invention, formulated in the form of wettable powders (WP) or as emulsion concentrates (EC), are then sprayed onto the green parts of the plants in the form of an aqueous suspension or emulsion at a water application rate equating to […], with addition of 0.2% wetting agent. After the test plants have been left to stand in the greenhouse under optimal growth conditions for about 3 weeks, the action of the preparations is assessed visually in comparison to untreated controls (herbicidal action in percent (%): 100% activity=the plants have died, 0% activity=like control plants). […] At the same time, inventive compounds leave Gramineae crops such as barley, wheat, rye, millet/sorghum, corn or rice virtually undamaged when applied post-emergence, even at high active compound dosages. In addition, some substances are also harmless to dicotyledonous crops such as soya, cotton, oilseed rape, sugar beet or potatoes. Some of the compounds according to the invention have high selectivity and are therefore suitable for controlling unwanted vegetation in agricultural crops by the post-emergence method. The data of Tables C and D below illustrate, in an exemplary manner, the […] herbicidal action of the compounds according to the invention, the herbicidal activity being stated in percent.
as §2

Setaria viridis [3] = test: Pre-emergence herbicidal action, SETVI; settings: dosage 320 g/ha, scored visually after 3 weeks vs untreated controls
Source text: as §1, §2

Stellaria media [4] = test: Pre-emergence herbicidal action, STEME; settings: dosage 320 g/ha, scored visually after 3 weeks vs untreated controls
Source text: as §1, §2

Abutilon theophrasti [5] = test: Post-emergence herbicidal action, ABUTH; settings: 80 g/ha, Table D
Protocol: as §3, §2

Amaranthus retroflexus [6] = test: Pre-emergence herbicidal action, AMARE; settings: dosage 320 g/ha, scored visually after 3 weeks vs untreated controls
Source text: as §1, §2

Viola tricolor [7] = test: Pre-emergence herbicidal action, VIOTR; settings: dosage 320 g/ha, scored visually after 3 weeks vs untreated controls
Source text: as §1, §2

Amaranthus retroflexus [8] = test: Post-emergence herbicidal action, AMARE; settings: 80 g/ha, Table D
Protocol: as §3, §2

ECHCG = test: Post-emergence herbicidal action, ECHCG; settings: 80 g/ha, Table C
Protocol: as §3

Stellaria media [9] = test: Post-emergence herbicidal action, STEME; settings: 80 g/ha, Table D
Protocol: as §3, §2

Cyperus serotinus = test: Pre-emergence herbicidal action, CYPES; settings: dosage 320 g/ha, scored visually after 3 weeks vs untreated controls
Source text: as §1, §2

Matricaria inodora = test: Pre-emergence herbicidal action, MATIN; settings: dosage 320 g/ha, scored visually after 3 weeks vs untreated controls
Source text: as §1, §2

Setaria viridis [10] = test: Post-emergence herbicidal action, SETVI; settings: 80 g/ha, Table C
Protocol: as §3, §2

Pharbitis purpureum = test: Post-emergence herbicidal action, PHBPU; settings: 80 g/ha, Table D
Protocol: as §3, §2

Structure (SMILES) | herbicidal activity ABUTH (Abutilon theophrasti [1]) [%] | herbicidal activity VIOTR (Viola tricolor [2]) [%] | herbicidal activity SETVI (Setaria viridis [3]) [%] | Herbicidal activity STEME (Stellaria media [4]) [%] | herbicidal activity ABUTH (Abutilon theophrasti [5]) [%] | herbicidal activity AMARE (Amaranthus retroflexus [6]) [%] | herbicidal activity VIOTR (Viola tricolor [7]) [%] | herbicidal activity AMARE (Amaranthus retroflexus [8]) [%] | Herbicidal activity ECHCG (ECHCG) [%] | Herbicidal activity STEME (Stellaria media [9]) [%] | herbicidal activity CYPES (Cyperus serotinus) [%] | herbicidal activity MATIN (Matricaria inodora) [%] | herbicidal activity SETVI (Setaria viridis [10]) [%] | Herbicidal activity PHBPU (Pharbitis purpureum) [%]
CCSc1c(C(F)F)ccc(C(=O)Nc2ncnn2C)c1F [Example 4-40] | 100 | 80 | 80 | 100 | 80 | 100 | 100 | 100 | 90 | 90 | 100 | 100 | 90 | 
CCSc1c(C(F)F)ccc(C(=O)Nc2ncnn2C)c1C1CC1 [Example 4-28] | 100 | 80 |  | 90 |  | 90 | 100 | 80 |  | 100 |  | 90 |  | 90
Cn1nnnc1NC(=O)c1ccc(C(F)F)c(S(C)(=O)=O)c1I [Example 1-75] | 90 |  | 100 | 100 |  | 90 | 90 | 90 |  | 100 |  | 90 |  | 80
CC[S+]([O-])c1c(C(F)F)ccc(C(=O)Nc2ncnn2C)c1C1CC1 (stereo not drawn) [Example 4-29] | 100 | 90 |  | 90 | 80 | 90 | 100 | 80 |  | 90 |  | 90 |  | 90
Cn1ncnc1NC(=O)c1ccc(C(F)F)c(S(C)(=O)=O)c1F [Example 4-39] | 100 | 90 | 100 | 100 | 90 | 100 | 100 | 90 |  | 100 |  | 90 |  | 90
CCS(=O)(=O)c1c(C(F)F)ccc(C(=O)Nc2ncnn2C)c1C [Example 4-6] | 100 | 100 | 90 | 90 | 100 | 100 | 100 | 100 | 100 | 100 | 100 | 100 | 100 | 80
Cn1ncnc1NC(=O)c1ccc(C(F)F)c(S(C)(=O)=O)c1I [Example 4-75] | 100 | 80 | 90 | 100 |  | 100 | 90 | 100 |  | 90 | 80 | 100 |  | 80
Cn1ncnc1NC(=O)c1ccc(C(F)F)c([S+](C)[O-])c1F (stereo not drawn) [Example 4-38] | 90 | 100 |  |  | 90 |  |  | 90 | 80 | 90 |  |  |  | 90
